As a reminder, the % Inhibition is how much of the control response was suppressed.

Experimental findings from patent publication US5541217A, “4-arylcyclopenta[c]pyrrole analgesics” (Ortho Pharmaceutical Corporation, priority 1995, dated 1996) are described below.

The subject of the assay is acetylcholine-bromide induced abdominal constriction response. The experiment in a line: Mouse Acetylcholine Bromide-Induced Abdominal Constriction Assay. It is filed as in vivo. The note with it: 30 min before i.p. 5.5 mg/kg acetylcholine bromide, 10 min observation.

For `CN1C[C@H]2CC[C@](O)(c3ccccc3)[C@H]2C1` (relative stereo) [Cp-1], the “% Inhibition at 30 mg/kg” value (po) is 87%.
With `CN1C[C@H]2CC[C@@H](c3ccc(F)cc3)[C@H]2C1` (relative stereo) [Cp-5], for the setting “po”, the “% Inhibition at 30 mg/kg” value stood at 87%.
`CN1C[C@H]2CC[C@](O)(c3ccc(F)cc3)[C@H]2C1` (relative stereo) [Cp-2]: the “% Inhibition at 30 mg/kg” value (po) was 87%.
Turning to `CN1C[C@H]2CC[C@H](c3ccccc3)[C@H]2C1` (relative stereo) [Cp-7], under “sc”, the “% Inhibition at 30 mg/kg” value came to 100%.
Turning to `CN1C[C@H]2CC[C@@H](c3cccc(C(F)(F)F)c3)[C@H]2C1` (relative stereo) [Cp-6], the “% Inhibition at 30 mg/kg” value (sc) came out at 87%.
Consider `CN1C[C@H]2CC[C@](O)(c3cccc(C(F)(F)F)c3)[C@H]2C1` (relative stereo) [Cp-3], for which the “% Inhibition at 30 mg/kg” value (po) is given as 87%.
As for `CN1C[C@H]2CC[C@@H](c3ccccc3)[C@H]2C1` (relative stereo) [Cp-4], the “% Inhibition at 30 mg/kg” value (sc) stood at 100%.
